Assay results: patent publication US12318366B2, “Pharmaceutical combination and composition, and combination preparation containing glucokinase activator and biguanide hypoglycemic drug as well as preparation method and use thereof” (HUA Medicine (Shanghai) Ltd., priority 2018, dated 2025)
Structures can show the parent of a compound that is named as a salt.

System: patients with type II diabetes
Experiment: Clinical study on the combination of HMS5552 and metformin hydrochloride: blood glucose after the meal
Type: in vivo, human
Conditions: 13 type II diabetes patients; oral; metformin hydrochloride 500 mg (day 3), 500 mg + HMS5552 50 mg (day 8), HMS5552 50 mg (day 13); meal 30 minutes after administration
Experimental: 13 patients with type II diabetes were enrolled, who have been given a stable dose of metformin hydrochloride at 1000 mg/day for at least 14 days at the time of enrollment. On the 1st and 2nd day of the study, 500 mg of metformin hydrochloride was given orally daily both in the morning and in the evening; on the 3rd day, 500 mg of metformin hydrochloride was given once in the morning; on each day of the 4th to 7th day, 500 mg of metformin hydrochloride and 50 mg of HMS5552 were given daily both in the morning and in the evening; on the 8th day, 500 mg of metformin hydrochloride and 50 mg of HMS5552 were given once in the morning; on each day of 9th to 12th day, 50 mg of HMS5552 was given orally daily both in the morning and in the evening; and on the 13th day, 50 mg of HMS5552 was given once in the morning. Meals were taken 30 minutes after each administration of the test drugs.
Plasma samples were collected after administration on the 3rd, 8th and 13th day, and the blood glucose concentrations were analyzed.

## CN(C)C(=N)N=C(N)N [metformin, metformin hydrochloride]
  area under the curve for blood glucose between 0 and 4 hours after the meal (AUECO-4h): 110.2 mg·h/dL

## CC(C)C[C@@H](C(=O)Nc1ccn(C[C@@H](O)CO)n1)N1CC(Oc2ccccc2Cl)=CC1=O [HMS5552, (S)-2-[4-(2-chloro-phenoxy)-2-oxo-2,5-dihydro-pyrrol-1-yl]-4-methyl-pentanoic acid [1-((R)-2,3-dihydroxy-propyl)-1H-pyrazol-3-yl]-amide]
  area under the curve for blood glucose between 0 and 4 hours after the meal (AUECO-4h): 72.96 mg·h/dL
